# According to patent publication US11524969B2, “Pyrrolobenzodiazepines and conjugates thereof as antitumour agents” (MEDIMMUNE LIMITED, priority 2018, dated 2022):
# Test system: NCI-N87
# Assay: NCI-N87 assay, in vitro cytotoxicity of PBD payloads (MTS, 7 days)
# Type: cell-based
# Conditions: Homo sapiens, NCI-N87, 168 h; 7 days incubation, mean of three independent replicates
# Procedure: The potency of each of the PBD molecules were measured via in vitro cytotoxicity assays in the carcinoma cell line NCI-N87.
# (§1) Solid PBD material was dissolved in DMSO to a 2 mM stock solution, from which eight serial dilutions were made at a 1:10 ratio in DMSO and stored at −20° C. until use.
# Adherent NCI-N87 cells were washed with D-PBS and detached with Trypsin-EDTA, cell density and viability were then determined in duplicate by Trypan blue exclusion assay using an automated cell counter (LUNA-II™). Cell suspension was diluted to 1×10^5 cells/ml in growth media (RPMI 1640 with Glutamax+10% (v/v) HyClone™ Fetal Bovine Serum) and vortexed before dispensing 2 mL per well into sterile 3 mL polypropylene plates. Warhead dilutions were then dispensed into the appropriate wells at 10 μl/well and mixed by repeat pipetting. For control wells 10 μl of DMSO was dispensed onto 2 mL cell suspension, and thoroughly mixed. 100 μl of each sample was then aliquoted into 2 replicate wells of a sterile flat 96-well microplate and incubated in a 37° C. CO2-gassed (5%) incubator. At the end of the incubation period time (7 days), cell viability was measured by CellTiter 96® Aqueous One (MTS) assay, which was dispensed at 20 μl/well and incubated for 4 hours at 37° C., 5% CO2.
# Plates were then read on an EnVision® Multi-label Plate Reader (Perkin Elmer) using absorbance at 490 nm.
# (§2) Cell survival percentage was calculated from the mean absorbance of the 2 replicate wells for each sample, compared to the mean absorbance in the two control wells treated with DMSO only (100%). The IC50 was determined by fitting each data set to sigmoidal dose-response curves with a variable slope using the non-linear curve fit algorithm on the GraphPad Prism software (San Diego, Calif.).
# All the experiments in this report were carried out and tested in three independent experiments. Data are reported as the mean of the three independent replicates.
row,SMILES,IC50 [nM]
1,"C=C1C[C@H]2C=Nc3cc(OCc4cc(COc5cc6c(cc5OC)C(=O)N5CC(=C)C[C@H]5C=N6)cc(C(=O)OC)c4)c(OC)cc3C(=O)N2C1 [Compound 51, Methyl 3,5-bis((((S)-7-methoxy-2-methylene-5-oxo-2,3,5,11a-tetrahydro-1H-benzo[e]pyrrolo[1,2-a][1,4]diazepin-8-yl)oxy)methyl)benzoate]",0.0685
2,"C=C1C[C@H]2C=Nc3cc(OCc4cc(COc5cc6c(cc5OC)C(=O)N5CC(=C)C[C@H]5C=N6)cc(C(=O)O)c4)c(OC)cc3C(=O)N2C1 [Compound 53, 3,5-bis((((S)-7-Methoxy-2-methylene-5-oxo-2,3,5,11a-tetrahydro-1H-benzo[e]pyrrolo[1,2-a][1,4]diazepin-8-yl)oxy)methyl)benzoic acid]",4.31
3,"C=C1C[C@H]2C=Nc3cc(OCc4cc(C(=O)OC)cc(COc5cc6c(cc5OC)C(=O)N5CC(=C)C[C@H]5C=N6)n4)c(OC)cc3C(=O)N2C1 [Compound 55, Methyl 2,6-bis((((S)-7-methoxy-2-methylene-5-oxo-2,3,5,11a-tetrahydro-1H-benzo[e]pyrrolo[1,2-a][1,4]diazepin-8-yl)oxy)methyl)isonicotinate]",0.0168
4,"C=C1C[C@H]2C=Nc3cc(OCc4cc(C(=O)O)cc(COc5cc6c(cc5OC)C(=O)N5CC(=C)C[C@H]5C=N6)n4)c(OC)cc3C(=O)N2C1 [Compound 56, 2,6-Bis((((S)-7-methoxy-2-methylene-5-oxo-2,3,5,11a-tetrahydro-1H-benzo[e]pyrrolo[1,2-a][1,4]diazepin-8-yl)oxy)methyl)isonicotinic acid]",20.7
5,"C=C1C[C@H]2C=Nc3cc(OCc4cccc(COc5cc6c(cc5OC)C(=O)N5CC(=C)C[C@H]5C=N6)c4)c(OC)cc3C(=O)N2C1 [Compound 58, (11aS,11a′S)-8,8′-((1,3-phenylenebis(methylene))bis(oxy))bis(7-methoxy-2-methylene-1,2,3,11a-tetrahydro-5H-benzo[e]pyrrolo[1,2-a][1,4]diazepin-5-one), reference compound]",0.0172

# Test system: K562
# Assay: K562 assay, in vitro cytotoxicity of PBD payloads (MTS, 4 days)
# Type: cell-based
# Conditions: Homo sapiens, K562, 96 h; 4 days incubation, mean of three independent replicates
# Procedure: The potency of each of the PBD molecules were measured via in vitro cytotox assays in the carcinoma cell line K562.
# as §1
# Adherent K562 cells were washed with D-PBS and detached with Trypsin-EDTA, cell density and viability were then determined in duplicate by Trypan blue exclusion assay using an automated cell counter (LUNA-II™). Cell suspension was diluted to 1×10^5 cells/ml in growth media (RPMI 1640 with Glutamax+10% (v/v) HyClone™ Fetal Bovine Serum) and vortexed before dispensing 2 mL per well into sterile 3 mL polypropylene plates. […] At the end of the incubation period time (4 days), cell viability was measured by CellTiter 96® Aqueous One (MTS) assay, which was dispensed at 20 μl/well and incubated for 4 hours at 37° C., 5% CO2. Plates were then read on an EnVision® Multi-label Plate Reader (Perkin Elmer) using absorbance at 490 nm.
# as §2, with “Calif.). […]” for “Calif.).”
row,SMILES,IC50 [nM]
1,"COC(=O)c1cc(COc2cc3c(cc2OC)C(=O)N2C=C(C)C[C@H]2C=N3)cc(COc2cc3c(cc2OC)C(=O)N2C=C(C)C[C@H]2C=N3)c1 [Compound 47, Methyl 3,5-bis((((S)-7-methoxy-2-methyl-5-oxo-5,11a-dihydro-1H-benzo[e]pyrrolo[1,2-a][1,4]diazepin-8-yl)oxy)methyl)benzoate]",0.162
2,"COc1cc2c(cc1OCc1cc(COc3cc4c(cc3OC)C(=O)N3C=C(C)C[C@H]3C=N4)cc(C(=O)O)c1)N=C[C@@H]1CC(C)=CN1C2=O [Compound 49, 3,5-bis((((S)-7-methoxy-2-methyl-5-oxo-5,11a-dihydro-1H-benzo[e]pyrrolo[1,2-a][1,4]diazepin-8-yl)oxy)methyl)benzoic acid]",1.84
